The text below walks through data of patent publication US10000471B2, “Pyrazole P38 map kinase inhibitors” (Respivert Limited, priority 2010, dated 2018).

For data set [1], the system named is Differentiated U937 cells. Briefly: Cell viability MTT assay. The data set is classed as cell-based, human. As to conditions: negative = apparent increase in viability; for MTT Assay (Viability) 4 h d-U937, percentage loss of cell viability: 4 hr in 5% FCS; for MTT Assay (Viability) 24 h d-U937, percentage loss of cell viability: 24 h in 10% FCS. A digest of the protocol:
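Differentiated U937 cells pre-incubated with compound either 4 hr in 5% FCS or 24 h in 10% FCS, then 1 hr MTT. Formazan dissolved in DMSO, absorbance at 550 nm. Percentage viability loss relative to 0.5% DMSO vehicle; apparent increases appear as negative percentages.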

The subject of data set [2] is ICAM-1 induction in BEAS2B cells. The data set can be described thus: Poly I:C-induced ICAM-1 induction in BEAS2B cells. The data set is classed as cell-based, human. As to conditions: Homo sapiens, BEAS-2B, read-out: PolyIC/ICAM1 IC50 BEAS2B. In short, it runs like this:
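IC50 reflects inhibition of cell-surface ICAM-1 relative to vehicle, read by ELISA (OD450 against 655 nm) and divided by crystal violet OD595 for cell number. Readings were taken 18 hr after transfection of 1 μg/mL poly I:C into BEAS2B cells. Compound was added 2 hr before stimulation.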

The target of the next data set is T1, p38 MAPKγ (MAPK12) (Homo sapiens, UniProt P53778).
T1 construct: purchased Invitrogen
T1 sequence (P53778 1-367): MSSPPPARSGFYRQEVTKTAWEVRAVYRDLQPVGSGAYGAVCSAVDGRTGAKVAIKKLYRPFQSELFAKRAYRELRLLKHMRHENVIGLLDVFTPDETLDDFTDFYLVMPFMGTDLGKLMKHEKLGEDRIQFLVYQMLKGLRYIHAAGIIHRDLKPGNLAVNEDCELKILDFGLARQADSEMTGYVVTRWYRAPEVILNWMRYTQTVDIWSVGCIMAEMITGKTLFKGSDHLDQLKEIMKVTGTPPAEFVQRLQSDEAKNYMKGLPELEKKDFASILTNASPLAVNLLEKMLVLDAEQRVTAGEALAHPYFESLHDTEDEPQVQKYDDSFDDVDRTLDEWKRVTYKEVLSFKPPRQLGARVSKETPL
The data set can be described thus: Enzyme inhibition assay (FRET, Z-LYTE), p38 MAPKγ. Format: biochemical. The settings on record: read-out: Enzyme Inhibition IC50 p38γ. A digest of the protocol: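 Z-LYTE FRET readout: after 1 h kinase reaction (ATP 100 μM, peptide 2 μM) following 2 h RT enzyme–compound preincubation in HEPES, protease cleaves only unphosphorylated peptide. Percent inhibition from donor/acceptor ratio relative to control; IC50 fitted from the curve.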

The subject of data set [3] is TNFα release in THP-1 cells. The data set can be described thus: LPS-induced TNFα release in THP-1 cells. Format: cell-based, human. As to conditions: Homo sapiens. A digest of the protocol: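 IC50 derived from concentration-response of TNFα inhibition relative to vehicle, with TNFα quantified by sandwich ELISA in supernatants. THP-1 cells were challenged 4 hr with LPS (E. coli, 3 μg/mL).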

For data set [4], the system named is IL-8 release in d-U937 cells. The data set can be described thus: LPS-induced IL-8 release in d-U937 cells. The settings on record: Homo sapiens, dU937. Format: cell-based, human. A digest of the protocol:
(§1)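 Sandwich ELISA of TNFα and IL-8 in supernatants after 4 hr 0.1 μg/mL LPS (E. coli O111:B4) challenge of U937 cells differentiated with PMA 100 ng/ml for 48–72 hr, compound added 2 hr beforehand. IL-8: IC50 from inhibition versus vehicle; TNFα: REC50 from inhibition as percentage of 10 μg/mL BIRB796 effect.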

For data set [5], the system named is TNFα release in d-U937 cells. Briefly: LPS-induced TNFα release in d-U937 cells. Format: cell-based, human. As to conditions: Homo sapiens, dU937, relative to 10 μg/mL BIRB796, read-out: LPS/TNFα REC50 d-U937. In short, it runs like this:
as §1

The target of data set [6] is T2, p38 MAPKα isoform (MAPK14) (Homo sapiens, UniProt Q16539).
T2 construct: purchased Invitrogen
The data set can be described thus: Enzyme inhibition assay (FRET, Z-LYTE), p38 MAPKα via MAPKAP-K2 activation. The data set is classed as biochemical. As to conditions: read-out: Enzyme Inhibition IC50 p38α. A digest of the protocol: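 Z-LYTE FRET format, in which protease cleaves only non-phosphorylated peptide, read after 1 h development. Compound was mixed with p38 MAPKα for 2 h at RT, and inhibition was gauged from MAPKAP-K2 activation/phosphorylation rather than directly. Percent inhibition against an uninhibited control was fitted to give IC50.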

T2 sequence (Q16539 whole entry, canonical isoform): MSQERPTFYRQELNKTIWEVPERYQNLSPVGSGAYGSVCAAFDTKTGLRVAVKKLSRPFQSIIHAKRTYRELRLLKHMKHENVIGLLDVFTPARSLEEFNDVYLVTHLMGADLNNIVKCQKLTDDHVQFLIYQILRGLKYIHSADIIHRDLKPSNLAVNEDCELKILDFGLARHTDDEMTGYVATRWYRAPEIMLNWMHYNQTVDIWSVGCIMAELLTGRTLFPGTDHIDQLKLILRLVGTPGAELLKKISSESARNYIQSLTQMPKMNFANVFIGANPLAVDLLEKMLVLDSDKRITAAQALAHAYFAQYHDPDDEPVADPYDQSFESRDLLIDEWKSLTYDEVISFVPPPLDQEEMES

With `COCC(=O)Nc1cc(CSc2ccc(NC(=O)Nc3cc(C(C)(C)C)nn3-c3ccc(OC)cc3)c(Cl)c2Cl)ccn1` [Example 26, N-(4-((4-(3-(3-tert-Butyl-1-(4-methoxyphenyl)-1H-pyrazol-5-yl)ureido)-2,3-dichlorophenylthio)methyl)pyridin-2-yl)-2-methoxyacetamide], the “MTT Assay (Viability) 4 h d-U937, percentage loss of cell viability” value in data set [1] is listed as 10.5%. Moreover, the “MTT Assay (Viability) 24 h d-U937, percentage loss of cell viability” value in data set [1] was −4.3%. For the same molecule, the IC50 was over 156 nM in data set [2]; 2860 nM on p38 MAPKγ (MAPK12); 97.2 nM in data set [3]; 266 nM in data set [4]; 29 nM in data set [6]. For the same molecule, in data set [5], the EC50 was 171 nM.

Take `COCC(=O)Nc1cc(Oc2ccc(NC(=O)Nc3cc(C(C)(C)C)nn3-c3ccc(C)cc3)c(Cl)c2)ccn1` [Example 27, N-(4-(4-(3-(3-tert-butyl-1-p-tolyl-1H-pyrazol-5-yl)ureido)-3-chlorophenoxy)pyridin-2-yl)-2-methoxyacetamide]: the “MTT Assay (Viability) 4 h d-U937, percentage loss of cell viability” value in data set [1] is given as 7.2%. Also, the “MTT Assay (Viability) 24 h d-U937, percentage loss of cell viability” value in data set [1] came to 54.9%. For the same molecule, the IC50 was found to be 6.3 nM in data set [2]; 111 nM on p38 MAPKγ (MAPK12); 0.6 nM in data set [3]; 3.3 nM in data set [4]; 18.8 nM in data set [6]. Besides, the EC50 in data set [5] is 0.5 nM.

On to `COCC(=O)Nc1cc(Oc2ccc(NC(=O)Nc3cc(C(C)(C)C)nn3-c3ccc(C)cc3)cc2C#N)ccn1` [Example 28, N-(4-(4-(3-(3-tert-butyl-1-p-tolyl-1H-pyrazol-5-yl)ureido)-2-cyanophenoxy)pyridin-2-yl)-2-methoxyacetamide], for which the “MTT Assay (Viability) 4 h d-U937, percentage loss of cell viability” value in data set [1] is −3.8%. In data set [1], the “MTT Assay (Viability) 24 h d-U937, percentage loss of cell viability” value is on record as 71.0%. In addition, the IC50 came out at 11.6 nM in data set [2]; 30.1 nM at p38 MAPKγ (MAPK12); 3.2 nM in data set [3]; 7 nM in data set [4]; 48.3 nM in data set [6]. The EC50 in data set [5] was found to be 2.7 nM.

For the molecule `COCC(=O)Nc1cc(Oc2ccc(NC(=O)Nc3cc(C(C)(C)C)nn3-c3ccc(C)cc3)cc2Cl)ccn1` [Example 29, N-(4-(4-(3-(3-tert-butyl-1-p-tolyl-1H-pyrazol-5-yl)ureido)-2-chlorophenoxy)pyridin-2-yl)-2-methoxyacetamide], in data set [1], the “MTT Assay (Viability) 4 h d-U937, percentage loss of cell viability” value is listed as −0.7%. Moreover, the “MTT Assay (Viability) 24 h d-U937, percentage loss of cell viability” value in data set [1] was 30.8%. Also, the IC50 in data set [2] was found to be 77 nM; at p38 MAPKγ (MAPK12) it was 46.1 nM; in data set [3], 2.2 nM; in data set [4] it was 17.9 nM; in data set [6], 46.1 nM. Also, in data set [5], the EC50 came to 0.8 nM.

In the case of `COCC(=O)Nc1cc(Oc2ccc(NC(=O)Nc3cc(C(C)(C)C)nn3-c3ccc(C)cc3)cc2C(F)(F)F)ccn1` [Example 30, N-(4-(4-(3-(3-tert-butyl-1-p-tolyl-1H-pyrazol-5-yl)ureido)-2-trifluoromethylphenoxy)pyridin-2-yl)-2-methoxyacetamide], the “MTT Assay (Viability) 4 h d-U937, percentage loss of cell viability” value in data set [1] is 3.3%. In addition, the “MTT Assay (Viability) 24 h d-U937, percentage loss of cell viability” value in data set [1] was determined as 61.6%. Besides, the IC50 in data set [2] amounted to 6.9 nM; at p38 MAPKγ (MAPK12), 152 nM; in data set [3], 1.3 nM; in data set [4], 6.5 nM; in data set [6] it was 164 nM. Also, in data set [5], the EC50 was 2.5 nM.

Turning to `COCC(=O)Nc1cc(Oc2ccc(NC(=O)Nc3cc(C(C)(C)C)nn3-c3ccc(C)cc3)cc2S(C)(=O)=O)ccn1` [Example 31, N-(4-(4-(3-(3-tert-butyl-1-p-tolyl-1H-pyrazol-5-yl)ureido)-2-methylsulfonylphenoxy)pyridin-2-yl)-2-methoxyacetamide], the “MTT Assay (Viability) 4 h d-U937, percentage loss of cell viability” value in data set [1] worked out at 1.1%. In data set [1], the “MTT Assay (Viability) 24 h d-U937, percentage loss of cell viability” value came out at 49.3%. Also, the IC50 in data set [2] came out at 108 nM; at p38 MAPKγ (MAPK12) it was 290 nM; in data set [3] it was 143 nM; in data set [4], 264 nM; in data set [6] it was 154 nM. In data set [5], the EC50 was 176 nM.

Take `COCC(=O)Nc1cc(Oc2ccc(NC(=O)Nc3cc(C(C)(C)C)nn3-c3ccc(C)cc3)c(Br)c2)ccn1` [Example 32, N-(4-(3-bromo-4-(3-(3-tert-butyl-1-p-tolyl-1H-pyrazol-5-yl)ureido)phenoxy)pyridin-2-yl)-2-methoxyacetamide]: in data set [1], the “MTT Assay (Viability) 4 h d-U937, percentage loss of cell viability” value came out at 17.2%. The “MTT Assay (Viability) 24 h d-U937, percentage loss of cell viability” value in data set [1] is recorded as 65.3%. Further, the IC50 is 6.5 nM in data set [2]; 148 nM at p38 MAPKγ (MAPK12); 1.3 nM in data set [3]; 29.1 nM in data set [4]; 42.9 nM in data set [6]. In addition, the EC50 in data set [5] was found to be 0.6 nM.

As for `COCC(=O)Nc1cc(Oc2ccc(NC(=O)Nc3cc(C(C)(C)C)nn3-c3ccc(C)cc3)cc2Br)ccn1` [Example 33, N-(4-(2-bromo-4-(3-(3-tert-butyl-1-p-tolyl-1H-pyrazol-5-yl)ureido)phenoxy)pyridin-2-yl)-2-methoxyacetamide], in data set [1], the “MTT Assay (Viability) 4 h d-U937, percentage loss of cell viability” value was −12.6%. In addition, in data set [1], the “MTT Assay (Viability) 24 h d-U937, percentage loss of cell viability” value is 68.9%. Besides, the IC50 in data set [2] came out at 3 nM; at p38 MAPKγ (MAPK12), 59.7 nM; in data set [3], 1.5 nM; in data set [4] it was 4.8 nM; in data set [6], 25.3 nM. Also, the EC50 in data set [5] turned out to be 6.4 nM.

For `COCC(=O)Nc1cc(Oc2ccc(NC(=O)Nc3cc(C(C)(C)C)nn3-c3ccc(C)cc3)c(F)c2F)ccn1` [Example 34, N-(4-(4-(3-(3-tert-butyl-1-p-tolyl-1H-pyrazol-5-yl)ureido)-2,3-difluorophenoxy)pyridin-2-yl)-2-methoxyacetamide], in data set [1], the “MTT Assay (Viability) 4 h d-U937, percentage loss of cell viability” value turned out to be 2.4%. Further, the “MTT Assay (Viability) 24 h d-U937, percentage loss of cell viability” value in data set [1] came out at 82.1%. In addition, the IC50 in data set [2] turned out to be 2.5 nM; on p38 MAPKγ (MAPK12), 24 nM; in data set [3], 0.4 nM; in data set [4], 2.2 nM; in data set [6] it was 134 nM. For the same molecule, the EC50 in data set [5] came to 0.3 nM.

For `COCC(=O)Nc1cc(Oc2ccc(NC(=O)Nc3cc(C(C)(C)C)nn3-c3ccc(C)cc3)c(Cl)c2F)ccn1` [Example 35, N-(4-(4-(3-(3-tert-butyl-1-p-tolyl-1H-pyrazol-5-yl)ureido)-3-chloro-2-fluorophenoxy)pyridin-2-yl)-2-methoxyacetamide], the “MTT Assay (Viability) 4 h d-U937, percentage loss of cell viability” value in data set [1] is given as −0.2%. In addition, the “MTT Assay (Viability) 24 h d-U937, percentage loss of cell viability” value in data set [1] is on record as 73.1%. Besides, the IC50 in data set [2] is 1.5 nM; at p38 MAPKγ (MAPK12), 134 nM; in data set [3], 0.6 nM; in data set [4] it was 2.8 nM; in data set [6], 24.7 nM. Also, the EC50 in data set [5] came out at 0.5 nM.

Consider `COCC(=O)Nc1cc(Oc2ccc(NC(=O)Nc3cc(C(C)(C)C)nn3-c3ccc(C)cc3)c(Cl)c2Cl)ccn1` [Example 36, N-(4-(4-(3-(3-tert-butyl-1-p-tolyl-1H-pyrazol-5-yl)ureido)-2,3-dichlorophenoxy)pyridin-2-yl)-2-methoxyacetamide], for which, in data set [1], the “MTT Assay (Viability) 4 h d-U937, percentage loss of cell viability” value is −11.2%. Also, the “MTT Assay (Viability) 24 h d-U937, percentage loss of cell viability” value in data set [1] is 68.8%. The IC50 in data set [2] worked out at 1.9 nM; at p38 MAPKγ (MAPK12), 380 nM; in data set [3], 2.2 nM; in data set [4], 3.4 nM; in data set [6] it was 18.4 nM. Further, the EC50 in data set [5] came out at 0.7 nM.
